Data on two compounds can be found in patent US8568997B2, “Detection system and uses therefor” (Dimerix Bioscience Pty Ltd., priority 2006, dated 2013).

Entries after “also recorded” stand apart in the source; their conditions may differ.

Format in all cases: cell-based
For assay [1], the system named is thyrotropin releasing hormone receptor (TRHR). Description: eBRET/BRET beta-arrestin recruitment to TRHR/Rluc without IG3 (pcDNA3) in HEK293 cells. Here is the method:
eBRET measurements at 37 C were carried out on HEK293 cells transiently co-expressing TRHR/Rluc and barr2/Venus with either pcDNA3, orexin receptor 2 (OxR2), CXC chemokine receptor 2 (CXCR2), hemagglutin epitope-tagged melanocortin receptor 3 or 4 (HA-MC3R or HA-MC4R), or dopamine D2 receptor long form (D2LR) or short form (D2SR) following the treatment of each with their respective ligands.
Ligand treatments were either OxA or TRH only or both OxA and TRH combined. Phosphate-buffered saline (PBS) was used as a vehicle control.
Ligand treatments were either OxA or TRH only. Phosphate-buffered saline (PBS) was used as a vehicle control.
BRET measurements at 37 C were carried out on HEK293 cells transiently co-expressing TRHR/Rluc, barr2/Venus and pcDNA3 with increasing doses of TRH. Sigmoidal dose response curves were plotted using Prism (Graph Pad), either assuming a Hill slope of 1 or allowing for variable slope. The EC50 and Hill slope values for the variable slope curve are included in a table in the graph.
TRHR is IG1, Rluc is RC1, barr1 is IG2, EGFP is RC2 and OxR2 is IG3. The same amount of EGFP/barr1 (IG2-RC2) is transfected for each experiment.
Cells were seeded in 6-well plates at a density of approximately 630,000 cells/well (HEK293FT) or approximately 150,000 cells/well (COS-7) and maintained at 37° C., 5% CO2 in Complete Media (DMEM containing 0.3 mg/ml glutamine, 100 IU/ml penicillin and 100 μg/ml streptomycin (Gibco)) supplemented with 10% fetal calf serum (FCS; Gibco). Transient transfections were carried out 24 h after seeding using GeneJuice (Novagen) or Metafectene (Biontex) according to manufacturer instructions. 24 h post-transfection, cells were washed with PBS, detached using 0.05% trypsin/0.53 mM EDTA, resuspended in HEPES-buffered phenol red free Complete Media containing 5% FCS and added to a poly-L-lysine-coated white microplate (Nunc). 48 h post-transfection, eBRET assays were carried out following pre-incubation of cells with EnduRen™ (Promega) at a final concentration of 30-40 μM, at 37° C., 5% CO2 for 2 h. For original BRET studies, the HEPES-buffered phenol red free Complete Media was replaced with PBS and coelenterazine h (Molecular Probes) added to a final concentration of 5 μM immediately prior to commencing the assay. BRET measurements were taken at 37° C. using the Victor Light plate reader with Wallac 1420 software (Perkin-Elmer). Filtered light emissions were sequentially measured for 3-5 s in each of the ‘donor wavelength window’ (400-475 nm) and ‘acceptor wavelength window’ (>500 nm for EGFP or 520-540 nm for EYFP, Topaz (TYFP) or Venus). The BRET signal observed between interacting proteins is normalized by subtracting the background BRET ratio. This can be done in one of two ways (see Pfleger et al. (2006) Cell Signal 18, 1664-1670; Pfleger et al. (2006) Nat Protoc 1, 336-344): 1) the ratio of light emission through the ‘acceptor wavelength window’ over the 400-475 nm emission for a cell sample containing only the donor construct is subtracted from the same ratio for a sample containing the interacting acceptor and donor fusion proteins; 2) the ratio of light emission through the ‘acceptor wavelength window’ over the 400-475 nm emission for a cell sample treated with vehicle is subtracted from the same ratio for a second aliquot of the same cell sample treated with ligand. In the following examples, the first calculation will be used, unless the signal is described as the ligand-induced BRET ratio'.

Assay [2] relates to TRHR335 (truncated TRHR) with OxR2. Briefly: eBRET/BRET between TRHR335/Rluc and labelled beta-arrestin with OxR2 as IG3. (In general: BRET reads energy transfer from a luciferase to a nearby fluorophore.)
Protocol: Cells were seeded in 6-well plates at a density of approximately 630,000 cells/well (HEK293FT) or approximately 150,000 cells/well (COS-7) and maintained at 37° C., 5% CO2 in Complete Media (DMEM containing 0.3 mg/ml glutamine, 100 IU/ml penicillin and 100 μg/ml streptomycin (Gibco)) supplemented with 10% fetal calf serum (FCS; Gibco). Transient transfections were carried out 24 h after seeding using GeneJuice (Novagen) or Metafectene (Biontex) according to manufacturer instructions. 24 h post-transfection, cells were washed with PBS, detached using 0.05% trypsin/0.53 mM EDTA, resuspended in HEPES-buffered phenol red free Complete Media containing 5% FCS and added to a poly-L-lysine-coated white microplate (Nunc). 48 h post-transfection, eBRET assays were carried out following pre-incubation of cells with EnduRen™ (Promega) at a final concentration of 30-40 μM, at 37° C., 5% CO2 for 2 h. For original BRET studies, the HEPES-buffered phenol red free Complete Media was replaced with PBS and coelenterazine h (Molecular Probes) added to a final concentration of 5 μM immediately prior to commencing the assay. […] Filtered light emissions were sequentially measured for 3-5 s in each of the ‘donor wavelength window’ (400-475 nm) and ‘acceptor wavelength window’ (>500 nm for EGFP or 520-540 nm for EYFP, Topaz (TYFP) or Venus). The BRET signal observed between interacting proteins is normalized by subtracting the background BRET ratio.
A further assay has as its target T1, OxR2 (Homo sapiens, UniProt O43614).
T1 construct: expressed in transfected cells; host or cells: HEK293
T1 sequence (O43614 1-444): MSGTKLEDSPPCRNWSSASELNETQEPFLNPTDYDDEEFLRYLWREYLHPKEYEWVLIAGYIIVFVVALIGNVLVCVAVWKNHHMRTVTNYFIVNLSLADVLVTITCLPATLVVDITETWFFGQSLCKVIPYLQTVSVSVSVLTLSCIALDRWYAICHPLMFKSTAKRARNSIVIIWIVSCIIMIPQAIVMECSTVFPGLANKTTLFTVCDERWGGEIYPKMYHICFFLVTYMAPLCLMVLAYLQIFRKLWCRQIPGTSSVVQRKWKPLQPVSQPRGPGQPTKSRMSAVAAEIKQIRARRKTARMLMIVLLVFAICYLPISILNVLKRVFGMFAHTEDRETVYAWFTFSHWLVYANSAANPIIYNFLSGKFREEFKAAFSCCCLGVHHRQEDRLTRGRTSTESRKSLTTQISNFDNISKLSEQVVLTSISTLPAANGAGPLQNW
Briefly: BRET/eBRET beta-arrestin 2 recruitment to OxR2/Rluc (or Rluc8) without IG3 (pcDNA3). The conditions noted are these: OxR2/Rluc8 + barr2/Venus + pcDNA3. Here is the method: (§1) Phosphate-buffered saline (PBS) was used as a vehicle control.
(§2) Cells were seeded in 6-well plates at a density of approximately 630,000 cells/well (HEK293FT) or approximately 150,000 cells/well (COS-7) and maintained at 37° C., 5% CO2 in Complete Media (DMEM containing 0.3 mg/ml glutamine, 100 IU/ml penicillin and 100 μg/ml streptomycin (Gibco)) supplemented with 10% fetal calf serum (FCS; Gibco). Transient transfections were carried out 24 h after seeding using GeneJuice (Novagen) or Metafectene (Biontex) according to manufacturer instructions. 24 h post-transfection, cells were washed with PBS, detached using 0.05% trypsin/0.53 mM EDTA, resuspended in HEPES-buffered phenol red free Complete Media containing 5% FCS and added to a poly-L-lysine-coated white microplate (Nunc). 48 h post-transfection, eBRET assays were carried out following pre-incubation of cells with EnduRen™ (Promega) at a final concentration of 30-40 μM, at 37° C., 5% CO2 for 2 h. For original BRET studies, the HEPES-buffered phenol red free Complete Media was replaced with PBS and coelenterazine h (Molecular Probes) added to a final concentration of 5 μM immediately prior to commencing the assay. […] Filtered light emissions were sequentially measured for 3-5 s in each of the ‘donor wavelength window’ (400-475 nm) and ‘acceptor wavelength window’ (>500 nm for EGFP or 520-540 nm for EYFP, Topaz (TYFP) or Venus). […]

The target of another assay is T2, OxR2 with HA-TRHR (Homo sapiens, UniProt O43614+P34981).
T2 construct: expressed in transfected cells; host or cells: HEK293
T2 sequence (O43614 1-444): T1 sequence (O43614 1-444)
T2 sequence (P34981 1-398): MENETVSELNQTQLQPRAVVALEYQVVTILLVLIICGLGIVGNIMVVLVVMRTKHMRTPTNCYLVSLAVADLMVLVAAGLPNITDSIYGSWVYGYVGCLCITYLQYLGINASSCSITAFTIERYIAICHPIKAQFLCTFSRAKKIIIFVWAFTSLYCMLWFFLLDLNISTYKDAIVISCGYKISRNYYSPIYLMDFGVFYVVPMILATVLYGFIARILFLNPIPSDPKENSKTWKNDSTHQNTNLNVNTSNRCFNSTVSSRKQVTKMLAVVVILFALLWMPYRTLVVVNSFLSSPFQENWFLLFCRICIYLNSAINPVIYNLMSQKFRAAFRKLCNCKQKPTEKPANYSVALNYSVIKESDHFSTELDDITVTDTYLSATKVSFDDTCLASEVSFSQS
Briefly: eBRET between OxR2/Rluc8 and barr2/Venus with HA-TRHR as IG3. Here is the method:
as §1, §2

The target of assay [3] is bradykinin B2 receptor (B2R) with HA-AT1R (Homo sapiens, UniProt P30556). Briefly: eBRET between B2R/Rluc8 and barr2/Venus with HA-AT1R as IG3. The method, then: Phosphate-buffered saline (PBS) was used as a vehicle control. Data presented as ligand-induced BRET ratio.
Chain of bradykinin B2 receptor (B2R) with HA-AT1R (P30411 whole entry): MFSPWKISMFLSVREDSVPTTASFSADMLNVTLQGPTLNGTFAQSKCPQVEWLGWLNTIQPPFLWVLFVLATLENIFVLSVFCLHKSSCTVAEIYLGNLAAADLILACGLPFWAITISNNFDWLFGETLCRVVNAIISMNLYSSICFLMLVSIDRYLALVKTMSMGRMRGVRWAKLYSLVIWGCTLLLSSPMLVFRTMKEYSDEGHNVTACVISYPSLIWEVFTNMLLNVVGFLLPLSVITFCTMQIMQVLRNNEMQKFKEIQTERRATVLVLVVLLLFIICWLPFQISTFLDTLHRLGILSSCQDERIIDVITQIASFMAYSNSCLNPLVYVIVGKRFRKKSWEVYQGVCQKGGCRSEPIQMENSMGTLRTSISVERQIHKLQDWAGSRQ
Chain of bradykinin B2 receptor (B2R) with HA-AT1R (P30556 whole entry): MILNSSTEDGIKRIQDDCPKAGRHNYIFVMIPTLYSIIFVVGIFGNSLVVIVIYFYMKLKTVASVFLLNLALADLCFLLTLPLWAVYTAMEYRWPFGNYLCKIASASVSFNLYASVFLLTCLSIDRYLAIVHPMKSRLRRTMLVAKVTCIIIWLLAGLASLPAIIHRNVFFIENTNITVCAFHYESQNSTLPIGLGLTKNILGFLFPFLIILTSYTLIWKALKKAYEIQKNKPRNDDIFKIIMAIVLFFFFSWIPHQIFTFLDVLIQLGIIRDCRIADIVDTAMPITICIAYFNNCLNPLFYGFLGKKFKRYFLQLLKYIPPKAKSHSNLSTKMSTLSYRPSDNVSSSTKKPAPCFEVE
BRET measurements at 37 C were carried out on HEK293 cells transiently co-expressing B2R/Rluc8, barr2/Venus and HA-AT1R treated with increasing doses of Angiotensin II (AngII). A sigmoidal dose response curve was plotted using Prism (GraphPad) allowing for variable slope.
Cells were seeded in 6-well plates at a density of approximately 630,000 cells/well (HEK293FT) or approximately 150,000 cells/well (COS-7) and maintained at 37° C., 5% CO2 in Complete Media (DMEM containing 0.3 mg/ml glutamine, 100 IU/ml penicillin and 100 μg/ml streptomycin (Gibco)) supplemented with 10% fetal calf serum (FCS; Gibco). Transient transfections were carried out 24 h after seeding using GeneJuice (Novagen) or Metafectene (Biontex) according to manufacturer instructions. […] BRET measurements were taken at 37° C. using the Victor Light plate reader with Wallac 1420 software (Perkin-Elmer). Filtered light emissions were sequentially measured for 3-5 s in each of the ‘donor wavelength window’ (400-475 nm) and ‘acceptor wavelength window’ (>500 nm for EGFP or 520-540 nm for EYFP, Topaz (TYFP) or Venus). […]

As to `NC(=O)[C@@H]1CCCN1C(=O)[C@H](Cc1cnc[nH]1)NC(=O)[C@@H]1CCC(=O)N1` [TRH, pGlu-His-Pro-NH2], the “time to eBRET signal peak” value in assay [1] (HEK293, TRHR/Rluc + barr2/Venus + pcDNA3, ligand 10^−6M) is listed as “Within the first minute”. Besides, in assay [1] (HEK293, TRHR/Rluc + barr2/Venus + pcDNA3, ligand 10^−6M, 37 C), the eBRET signal peak result is “greater than 0.17”. The eBRET signal entry in assay [1] (TRHR/Rluc + EGFP/barr (barr1, barr2 or barr1R169E), no OxR2) was “rapid stimulation of the eBRET signal; also recorded: rapid increase in eBRET signal”; in assay [2] (TRHR335/Rluc + EGFP/barr1 + OxR2), “no eBRET signal above baseline”. For the same compound, the “dose-response Hill slope” value in assay [1] (TRHR/Rluc + barr2/Venus + pcDNA3, FIG. 10) is reported as “approximately 1”. In assay [2] (TRHR335/Rluc + barr2/Venus + OxR2), the “BRET signal, dose response curves” value was “does not result in a BRET signal”. The “ligand-induced eBRET signal” value at OxR2 is “No ligand-induced eBRET signal”; on OxR2 with HA-TRHR, 0.05.

In the case of AngII, in assay [3], the “eBRET signal (ligand-induced BRET ratio)” value is recorded as “robust increase in the eBRET signal”.
